Measured values taken from paper PMC12467382, “Synthesis and Bioevaluation of Chalcones as Broad-Spectrum Antiviral Compounds Against Single-Stranded RNA Viruses” (Biomolecules, 2025).

How the values were obtained:
OC43 = assay: Coronavirus OC43 NP protein expression in Hs27 cells by flow cytometry; format: cell-based, Human Coronavirus OC43; details: MOI 50, 24 hpi; for Cells expressing OC43 NP protein: 10 µM before and after infection, DMSO ~65%
Experimental: Human Coronavirus OC43 (ATCC, catalog number VR-1558) was grown in a human colorectal adenocarcinoma cell line (HCT-8; ATCC, Manassas, Virginia, catalog #CCL-244) at 33 °C as previously described. OC43 titers were determined at 33 °C via 50% Tissue Culture Infectious Dose assays (TCID50) on confluent human rhabdomyosarcoma (RD; ATCC, Manassas, Virginia, catalog # CCL-136) cells in 96-well plates as previously described. Infections were carried out in DMEM containing 10% BSA for 1 h at 33 °C. Cells were then washed with PBS, cultured in DMEM supplemented with 2% HI FBS, and incubated at 33 °C.
For cytotoxicity assays, cells were stained with propidium iodide (PI) at a dilution of 1:100. Cell viability was determined via flow cytometry using the CytoFLEX (Beckman Coulter, Brea, CA, USA). CytExpert software (Beckman Coulter, version 2.4) was used to analyze independent events. PIV5 infection was monitored using flow cytometry via the FITC channel by analyzing GFP expression of individual cells. ZIKV infection was monitored utilizing Flavivirus group antigen–antibody (D1-4G2-4-15; Novus Biologicals, Littleton, CO, USA) staining for the ZIKV envelope protein. Cells were fixed and permeabilized using eBioscience Intracellular Fixation and Permeabilization Buffer (Invitrogen, Thermo Fisher Scientific, MA, USA) according to the manufacturer’s instructions. Secondary staining was performed using an anti-Alexa Fluor 488 (AF488) antibody (Invitrogen, Thermo Fisher Scientific, MA, USA). OC43 infection was monitored utilizing a primary antibody targeted toward the OC43 nucleocapsid protein (NP, MAB9013, Sigma-Aldrich, St. Louis, MO, USA). Secondary staining was performed using an AF488 antibody. Cells were fixed and permeabilized as previously described. LACV infection was monitored utilizing an anti-LACV Gc 807.31ab antibody kindly provided by Andrew Pekosv. Secondary staining was performed using an AF488 antibody. […]
(§1) To expand these findings, we evaluated whether these top-performing chalcones inhibited the replication of other RNA viruses. […]

LACV = LACV Gc protein expression in Hs27 cells by flow cytometry; format: cell-based, La Crosse Virus; details: MOI 10, 24 hpi; for Cells expressing LACV glycoprotein Gc: 10 µM before and after infection, DMSO ~60%
Experimental: La Crosse Virus (LACV) was kindly provided by Andrew Pekosz (Johns Hopkins Bloomberg School of Public Health, Baltimore, MD, USA), grown at 28 °C in C6/36 cells derived from the larvae of the Asian tiger mosquito (ATCC), and titered at 37 °C on Vero cells as previously described. Infections were carried out in DMEM containing 2% HI FBS for 1 h or mock infected with media alone. Cells were washed with PBS and cultured in DMEM containing 2% HI FBS.
(§2) For cytotoxicity assays, cells were stained with propidium iodide (PI) at a dilution of 1:100. Cell viability was determined via flow cytometry using the CytoFLEX (Beckman Coulter, Brea, CA, USA). CytExpert software (Beckman Coulter, version 2.4) was used to analyze independent events. PIV5 infection was monitored using flow cytometry via the FITC channel by analyzing GFP expression of individual cells. ZIKV infection was monitored utilizing Flavivirus group antigen–antibody (D1-4G2-4-15; Novus Biologicals, Littleton, CO, USA) staining for the ZIKV envelope protein. Cells were fixed and permeabilized using eBioscience Intracellular Fixation and Permeabilization Buffer (Invitrogen, Thermo Fisher Scientific, MA, USA) according to the manufacturer’s instructions. Secondary staining was performed using an anti-Alexa Fluor 488 (AF488) antibody (Invitrogen, Thermo Fisher Scientific, MA, USA). OC43 infection was monitored utilizing a primary antibody targeted toward the OC43 nucleocapsid protein (NP, MAB9013, Sigma-Aldrich, St. Louis, MO, USA). Secondary staining was performed using an AF488 antibody. Cells were fixed and permeabilized as previously described. LACV infection was monitored utilizing an anti-LACV Gc 807.31ab antibody kindly provided by Andrew Pekosv. Secondary staining was performed using an AF488 antibody. Cells were fixed and permeabilized as previously described.
as §1

mTOR signaling = assay: Western blot of prps6 and rps6 as readouts of mTOR signaling in PANC-1 cells; format: cell-based; details: 72 h, chalcones 10 µM, rapamycin 10 nM
Experimental: PANC-1 cells were cultured in 6-well dishes and were lysed using modified radioimmunoprecipitation assay (RIPA) buffer (20 mM HEPES, pH 7.0, 150 mM NaCl, 1 mM EDTA, 1% NP-40, 1% deoxycholate, and 0.1% sodium dodecyl sulfate [SDS]) containing a complete protease inhibitor cocktail (Roche, Mannheim, Germany) and PhosSTOP phosphatase inhibitor cocktail (Roche, Mannheim, Germany). Protein concentrations were determined using the bicinchoninic acid (BCA) protein assay kit (Pierce, Rockford, IL, USA) according to manufacturer’s instructions. Cell lysates with 25 µg of protein were resolved on 12% sodium dodecyl sulfate-polyacrylamide gel electrophoresis (SDS-PAGE) gels and electro-transferred onto polyvinylidene difluoride (PVDF) membranes (Trans-Blot Turbo Transfer System, BioRad, Hercules, CA, USA). The samples were probed with rabbit monoclonal antibodies for the P-rps6 (1:1000) protein (Cell Signaling, Danvers, MA, USA) and mouse monoclonal antibodies for rps6 (1:1000) (Cell Signaling) and β-actin (1:5000) (Abcam, Waltham, MA, USA) proteins. Blots were visualized using anti-rabbit or anti-mouse horseradish peroxidase (HRP)-conjugated antibodies (Cell Signaling) and chemiluminescence reagent (Thermo Fisher Scientific, Waltham, MA, USA).
PANC-1 cells were chosen for this study as they are highly dependent on mTOR for their growth. PANC-1 cells were cultured and treated with the positive control rapamycin (10 nM) and chalcones NM5, 8a, 8o, 8s, 8v, and 8w (10 μM) for 72 h. Rapamycin and the chalcones were dissolved in 100% DMSO and dosed so that the final DMSO concentration was 0.1%. Cell lysates were collected and analyzed to determine the relative protein expression levels of rps6, prps6, and β-actin as a loading control (see Figure 12).

ZIKV = ZIKV envelope (E) protein expression in Hs27 cells by flow cytometry; format: cell-based, Zika Virus; details: MOI 5, 24 hpi; for Cells expressing ZIKV envelope (E) protein: 10 µM before and after infection, DMSO 15%
Experimental: The MR766 strain of Zika Virus (ZIKV) (ATCC-VR84, Manassas, VA, USA) was grown and titered at 37 °C using Vero cells as previously described. Infections were carried out in DMEM containing 10% BSA for 1 h. Cells were then washed with PBS and cultured in DMEM containing 10% HI FBS.
as §2
To expand these findings, we evaluated whether these top-performing chalcones inhibited the replication of other RNA viruses. Briefly described, Hs27 cells were left untreated, treated with DMSO as a control, or treated with the chalcones 8a, 8o, or 8p at 10 μM for 24 h. Cells were then infected with the Bunyavirus LACV, the Flavivirus ZIKV, or the Coronavirus OC43 at high MOIs, as listed in Figure 10. […]

SMILES | Effect on OC43 NP expression (OC43; 10 µM) | Inhibition of viral gene expression, LACV (LACV; 10 µM) | prps6 expression relative to DMSO control (mTOR signaling) | total rps6 protein expression relative to DMSO control (mTOR signaling) | Inhibition of viral gene expression, ZIKV (ZIKV; 10 µM) | Cells expressing OC43 NP protein (OC43) | Cells expressing LACV glycoprotein Gc (LACV) | Cells expressing ZIKV envelope (E) protein (ZIKV)
COc1ccccc1/C=C/C(=O)c1ccccc1O [Chalcone 8a] | significant inhibitory effects | did not inhibit viral gene expression | no significant change | no significant difference | did not inhibit viral gene expression | – | – | –
CCOc1ccc(Br)cc1/C=C/C(=O)c1c(O)cccc1OCc1ccccc1 [Chalcone 8o] | – | – | no significant change | no significant difference | – | 1-2% | below 10% | ~ 2%
CCOc1ccc(Cl)cc1/C=C/C(=O)c1c(O)cccc1OCc1ccccc1 [Chalcone 8p] | – | – | – | – | – | 1-2% | below 10% | ~ 2%
COc1ccc(Br)cc1/C=C/C(=O)c1c(O)cccc1OCCC(C)C [Chalcone 8s, (2E)-3-(5-Bromo-2-Methoxy-Phenyl)-1-[2-Hydroxy-6-(3-Methyl-Butoxy)-Phenyl]-Propenone] | – | – | no significant change | significantly increased | – | – | – | –
CCOc1ccc(Br)cc1/C=C/C(=O)c1c(O)cccc1OCc1ccc(-c2ccccc2)cc1 [Chalcone 8v, (2E)-1-[2-(Biphenyl-4-Ylmethoxy)-6-Hydroxy-Phenyl]3-(5-Bromo-2-Ethoxy-Phenyl)-Propenone] | – | – | no significant change | no significant difference | – | – | – | –
COc1ccc(Br)cc1/C=C/C(=O)c1c(O)cccc1OCc1ccc(-c2ccccc2)cc1 [Chalcone 8w, (2E)-1-[2-(Biphenyl-4-Ylmethoxy)-6-Hydroxy-Phenyl]3-(5-Bromo-2-Methoxy-Phenyl)-Propenone] | – | – | no significant change | no significant difference | – | – | – | –
